This is an account of results in the supplement of paper PMC6004109.

Common to all, as to conditions: temperature: 37 °C
Experiment [1] has as its system Saccharomyces cerevisiae ZIM 2255 (RPMI). Put plainly: Bliss independence sum of statistically significant ΔE (measured minus predicted growth inhibition) over checkerboard surface (fraction (sum of ΔE; 1 = 100%)); higher = more synergy.
Experiment [2] deals with Saccharomyces cerevisiae ZIM 2260 (RPMI). The experiment is described as above.
Experiment [3] concerns Candida glabrata ZIM 2382 (RPMI). Described as above.
Experiment [4] concerns Candida glabrata ZIM 2365 (RPMI). Described as above.
The subject of experiment [5] is Saccharomyces cerevisiae ZIM 2566 (RPMI). The experiment is described as above.
Experiment [6] has as its system Saccharomyces cerevisiae ZIM 2558 (RPMI). Described as above.
Experiment [7] deals with Candida glabrata ZIM 2389 (RPMI). The experiment is described as above.
Experiment [8] relates to Candida glabrata ZIM 2369 (RPMI). The description is as above.
Experiment [9] deals with Candida glabrata ATCC 2001 pdr1 deletion mutant (YPD). The experiment in a line: FICI minimum (fractional inhibitory concentration index, Loewe) (dimensionless); higher = less synergy / more antagonism. The gist of the method:
(§1)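 Yeast strains were tested against two-drug combinations by CLSI M27-A3 checkerboard broth microdilution, with clinical isolates in RPMI and C. glabrata ATCC 2001 and a strain derived from it in YPD. Each well held 100 µl of drug dilutions plus 100 µl of an inoculum at 3–5 × 10^3 cells/ml, incubated at 37 °C and read at 48 h as background-subtracted OD600 in at least biological triplicates. The reported figure is the lowest or highest Loewe fractional inhibitory concentration index across the combination surface, summing for each drug its MIC in combination divided by its MIC alone. Depending on the drug, the MIC was taken as MIC50 or MIC90.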

Experiment [10] has as its system Candida glabrata ATCC 2001 (YPD). The description is as above. The gist of the method:
as §1

In experiment [11] the test system is Candida glabrata ATCC 2001 pdr1 deletion mutant (YPD). The experiment in a line: FICI maximum (fractional inhibitory concentration index, Loewe) (dimensionless); higher = less synergy / more antagonism. The gist of the method:
as §1

The subject of experiment [12] is Candida glabrata ATCC 2001 (YPD). The description is as above. The gist of the method:
as §1

Experiment [13] concerns Candida glabrata ATCC 2001 pdr1 deletion mutant (YPD). Put plainly: Bliss independence sum of statistically significant ΔE (measured minus predicted growth inhibition) over checkerboard surface (fraction (sum of ΔE; 1 = 100%)); higher = more synergy.
In experiment [14] the test system is Candida glabrata ATCC 2001 (YPD). The description is as above.

As for `CN(Cc1cnc2nc(N)nc(N)c2n1)c1ccc(C(=O)N[C@@H](CCC(=O)O)C(=O)O)cc1` [methotrexate] + OC(Cn1cncn1)(Cn1cncn1)c1ccc(F)cc1F [fluconazole], the Bliss independence sum was -0.754 in experiment [1]; -0.0461 in experiment [2]; -1.36 in experiment [3]; 0.394 in [4]; -4.52 in [5]; 8.35 in [6]. The Bliss independence sum is 0.272 in experiment [7] and 0.22 in experiment [8].
As for `COc1c(C)c2c(c(O)c1C/C=C(\C)CCC(=O)O)C(=O)OC2` [mycophenolic acid] + OC(Cn1cncn1)(Cn1cncn1)c1ccc(F)cc1F [fluconazole], the FICI minimum was determined as 1.03 in experiment [9] and 1.06 in experiment [10]. The FICI maximum in experiment [11] came to 2.12; in experiment [12], 2.5. The Bliss independence sum is -3.66 in experiment [1]; -1.55 in experiment [2]; -1.7 in experiment [3]; -4.84 in experiment [4]; -3.21 in experiment [13]; -0.316 in experiment [5]. Moreover, the Bliss independence sum is -8.75 in [6], 1.41 in [7], -2.6 in experiment [14] and -2.4 in experiment [8].
Turning to `CN(Cc1cnc2nc(N)nc(N)c2n1)c1ccc(C(=O)N[C@@H](CCC(=O)O)C(=O)O)cc1` [methotrexate] + C[C@@H]1[C@H](O)[C@@H](C)/C=C/C=C/C=C/C=C/C=C/C=C/C=C/[C@H](O[C@@H]2O[C@H](C)[C@@H](O)[C@H](N)[C@@H]2O)C[C@@H]2O[C@](O)(C[C@@H](O)C[C@@H](O)[C@H](O)CC[C@@H](O)C[C@@H](O)CC(=O)O[C@H]1C)C[C@H](O)[C@H]2C(=O)O [amphotericin B], the Bliss independence sum was 0.262 in experiment [1]; 2 in experiment [2]; -0.569 in [3]; -0.0967 in [4]; -3.15 in [5]; -1.12 in [6]. In addition, the Bliss independence sum in [7] is -2.52; in experiment [8] it was 0.0762.
`C=CC[C@@H]1/C=C(\C)C[C@H](C)C[C@H](OC)[C@H]2O[C@@](O)(C(=O)C(=O)N3CCCC[C@H]3C(=O)O[C@H](/C(C)=C/[C@@H]3CC[C@@H](O)[C@H](OC)C3)[C@H](C)[C@@H](O)CC1=O)[C@H](C)C[C@@H]2OC` [tacrolimus] + C[C@@H]1[C@H](O)[C@@H](C)/C=C/C=C/C=C/C=C/C=C/C=C/C=C/[C@H](O[C@@H]2O[C@H](C)[C@@H](O)[C@H](N)[C@@H]2O)C[C@@H]2O[C@](O)(C[C@@H](O)C[C@@H](O)[C@H](O)CC[C@@H](O)C[C@@H](O)CC(=O)O[C@H]1C)C[C@H](O)[C@H]2C(=O)O [amphotericin B]: the Bliss independence sum in [1] is 11.4; in experiment [2] it was 9.87; in experiment [3], 0.265; in [4], 2.51; in [5] it was 8.22; in experiment [6] it was 9.97. Further, the Bliss independence sum in [7] is 0.693; in experiment [8] it was 4.67.
As for `CN(Cc1cnc2nc(N)nc(N)c2n1)c1ccc(C(=O)N[C@@H](CCC(=O)O)C(=O)O)cc1` [methotrexate] + CCC(C)n1ncn(-c2ccc(N3CCN(c4ccc(OCC5COC(Cn6cncn6)(c6ccc(Cl)cc6Cl)O5)cc4)CC3)cc2)c1=O [itraconazole], the Bliss independence sum is 1.41 in experiment [1]; -0.71 in experiment [2]; -1.18 in experiment [3]; 2.18 in [4]; 1.34 in experiment [5]; 1.01 in experiment [6]. The Bliss independence sum in [7] is 0.179; in experiment [8] it was -0.495.
For the molecule `CC1(C)S[C@@H]2[C@H](NC(=O)[C@H](N)c3ccc(O)cc3)C(=O)N2[C@H]1C(=O)O` [amoxicillin] + CCC(C)n1ncn(-c2ccc(N3CCN(c4ccc(OCC5COC(Cn6cncn6)(c6ccc(Cl)cc6Cl)O5)cc4)CC3)cc2)c1=O [itraconazole], the Bliss independence sum in experiment [1] is 0.234; in experiment [2], 0.613; in experiment [3], -0.629; in experiment [4], 3.78; in [5], -0.787; in experiment [6], 0.394. The figures for the Bliss independence sum in experiment [7] and in [8] were 0.79 and 0.313, respectively.
Turning to `COc1c(C)c2c(c(O)c1C/C=C(\C)CCC(=O)O)C(=O)OC2` [mycophenolic acid] + C[C@@H]1[C@H](O)[C@@H](C)/C=C/C=C/C=C/C=C/C=C/C=C/C=C/[C@H](O[C@@H]2O[C@H](C)[C@@H](O)[C@H](N)[C@@H]2O)C[C@@H]2O[C@](O)(C[C@@H](O)C[C@@H](O)[C@H](O)CC[C@@H](O)C[C@@H](O)CC(=O)O[C@H]1C)C[C@H](O)[C@H]2C(=O)O [amphotericin B], the Bliss independence sum in experiment [1] was -0.43; in experiment [2], 3.32; in experiment [3], 1.76; in experiment [4], 6.59; in experiment [5] it was -0.484; in [6], 3.61. The Bliss independence sum in experiment [7] is 4.37; in experiment [8] it was 0.709.
With `C=CC[C@@H]1/C=C(\C)C[C@H](C)C[C@H](OC)[C@H]2O[C@@](O)(C(=O)C(=O)N3CCCC[C@H]3C(=O)O[C@H](/C(C)=C/[C@@H]3CC[C@@H](O)[C@H](OC)C3)[C@H](C)[C@@H](O)CC1=O)[C@H](C)C[C@@H]2OC` [tacrolimus] + OC(Cn1cncn1)(Cn1cncn1)c1ccc(F)cc1F [fluconazole], the Bliss independence sum in [1] was 2.75; in experiment [2], 6.04; in experiment [3], 1.68; in [4], 2.21; in [5], 0.935; in experiment [6] it was 1.84. In addition, the figures for the Bliss independence sum in experiment [7] and in experiment [8] were 8 and 1.98, respectively.
As to `C=CC[C@@H]1/C=C(\C)C[C@H](C)C[C@H](OC)[C@H]2O[C@@](O)(C(=O)C(=O)N3CCCC[C@H]3C(=O)O[C@H](/C(C)=C/[C@@H]3CC[C@@H](O)[C@H](OC)C3)[C@H](C)[C@@H](O)CC1=O)[C@H](C)C[C@@H]2OC` [tacrolimus] + CCC(C)n1ncn(-c2ccc(N3CCN(c4ccc(OCC5COC(Cn6cncn6)(c6ccc(Cl)cc6Cl)O5)cc4)CC3)cc2)c1=O [itraconazole], the Bliss independence sum in [1] is 7.07; in [2], 10.8; in experiment [3], 1.94; in experiment [4], 2.36; in experiment [5], 9.53; in experiment [6], 8.75. For the same molecule, the Bliss independence sum in [7] was 8.47; in experiment [8] it was 3.73.
As to `CC1(C)S[C@@H]2[C@H](NC(=O)[C@H](N)c3ccc(O)cc3)C(=O)N2[C@H]1C(=O)O` [amoxicillin] + C[C@@H]1[C@H](O)[C@@H](C)/C=C/C=C/C=C/C=C/C=C/C=C/C=C/[C@H](O[C@@H]2O[C@H](C)[C@@H](O)[C@H](N)[C@@H]2O)C[C@@H]2O[C@](O)(C[C@@H](O)C[C@@H](O)[C@H](O)CC[C@@H](O)C[C@@H](O)CC(=O)O[C@H]1C)C[C@H](O)[C@H]2C(=O)O [amphotericin B], the Bliss independence sum is -2.26 in experiment [1]; 0.295 in [2]; 0.631 in [3]; 2.12 in experiment [4]; -0.244 in [5]; -2.25 in [6]. The Bliss independence sum in experiment [7] was 2.34; in experiment [8] it was -0.462.
